Literature values, collected in patent US6528539B1, “Stable formulation containing fumagillin” (Sanofi-Synthelabo, priority 1999, dated 2003).

Conditions: fumagillin as such; must be stored at −80° C.; literature studies named in b6

Q: Which “stability at ambient temperature” value does the source give for COC1C(OC(=O)/C=C/C=C/C=C/C=C/C(=O)O)CCC2(CO2)C1[C@@]1(C)O[C@@H]1CC=C(C)C (stereo in doubt) [Fumagillin, 2,4,6,8-decatetraenedioic acid mono[4-(1,2-epoxy-1,5-dimethyl-4-hexenyl)-5-methoxy-1-oxaspiro[2.5]oct-6-yl] ester] here?
A: highly unstable at ambient temperature
